The record followed here is patent publication US7553841B2, “Amino cyclobutylamide modulators of chemokine receptor activity” (Merck & Co., Inc., priority 2003, dated 2009).

The test system of the test is chemokine receptor. Put plainly: activity of separated cis/trans isomers (test not described). Conditions: cis versus trans isomer of the same example, separated by chromatography; values not given.

Structures are written as SMILES.

As for `CC(O)[C@]1(C(=O)NCc2cncc(C(F)(F)F)c2)C[C@@H](N2CC[C@@]3(C=Cc4ccccc43)[C@@H](C)C2)C1` (mixture of isomers) [Example 122 cis isomer], the “relative activity of the separated isomers” value (shortened to “relative activity”) was “more active isomer”. With `CN(C1CCOCC1)C1CC(C(=O)NCc2cc(F)cc(C(F)(F)F)c2)(c2ccccc2)C1` (stereo not drawn) [Example 42 trans isomer], the “relative activity” value was “active isomer”. Consider `C[C@H]1CN(C2CC(C)(C(=O)NCc3cc(C(F)(F)F)cc(C(F)(F)F)c3)C2)CC[C@@]12C=Cc1ccccc12` (stereo partly drawn) [Example 54 cis isomer], for which the “relative activity” value is “more active isomer”. Turning to `C[C@H]1CN(C2CC(C(=O)NCc3cc(C(F)(F)F)cc(C(F)(F)F)c3)C2)CC[C@@]12C=Cc1ccccc12` (stereo partly drawn) [Example 1 cis isomer], the “relative activity” value is on record as “more active isomer”. For `CN(C1CCOCC1)C1CC(C(=O)NCc2cc(C(F)(F)F)cc(C(F)(F)F)c2)(c2ccccc2)C1` (stereo not drawn) [Example 41 cis isomer], the “relative activity” value is given as “more active isomer”. `C[C@H]1CN(C2CC(CNC(=O)c3cc(C(F)(F)F)cc(C(F)(F)F)c3)(c3ccccc3)C2)CC[C@@]12C=Cc1ccccc12` (stereo partly drawn) [Example 43 cis isomer]: the “relative activity” value was “active isomer”.
